Laboratory results published in US20250051319A1 (AUGUSTINE THERAPEUTICS, priority 2021, published 2025).

What was measured:
[1] = target: T1, human full-length recombinant HDAC6 (Homo sapiens (Human), UniProt Q9UBN7); assay: HDAC6 enzymatic activity assay (Reaction Biology Corporation, RHKKAc fluorogenic peptide); format: biochemical; settings: Reaction Biology Corporation protocol, RHKKAc fluorogenic peptide 10 μM; read-out: HDAC6 biochem
Procedure: Dose response testing of HDAC6 and HDAC 1 were run at Reaction Biology Corporation (RBC). Inhibition of HDAC enzymes was performed using N-terminal GST tagged human full-length recombinant HDAC6 (H88-30G, SignalChem) and C-terminal FLAG His tag human full-length recombinant HDAC1 produced in insect cells (KDA-21-365, RBC). Enzyme reactions were run in 50 mM Tris-HCl, pH8.0, 137 mM NaCl, 2.7 mM KCl, and 1 mM MgCl2 with 1 mg/ml BSA, 1% DMSO freshly added. 2× enzyme was delivered in the wells of the reaction plate except for the “no enzyme” control wells. In the latter, buffer was added. Compounds in 100% DMSO were delved into the enzyme mixture by acoustic technology (Echo550). Plates are spun down and compounds were incubation with the enzyme for 10 min at room temperature. 2× Fluorogenic peptide from p53 residues 379-382 (RHKKAc, 10 μM final concentration) was added in all wells to initiate the reaction, followed by 1 h incubation at 30° C. Developer containing Trichostatin A was added to stop the reaction and generate fluorescent color. A kinetic measurement was carried out for 20 min with 5 min interval on the Envision plate reader (Perkin Elmer, Ex/Em=360/460). End point reading i.e., plateau of the development reaction was used for analysis. Data was reported by RBC as percentage enzyme activity. Percentage inhibition was calculated by subtracting percentage enzyme activity from 100. IC50 values were calculated using GraphPad Prism 9 based on the log(inhibitor) vs. response—Variable slope (four parameters) equation.

[2] = target: catalytic domain 2 (CD2) of HDAC6 (Homo sapiens (Human), UniProt Q9UBN7); assay: Cellular target engagement assay - NanoBRET; format: cell-based; settings: NanoLuc-HDAC6(CD2) in HEK293T cells, 2 hours, read-out: IC50 (HDAC6(CD2) interaction)
[3] = target: T1, human full-length recombinant HDAC6; assay: HDAC6 enzymatic activity assay (alternative protocol, Ac-Gly-Ala-Lys(Ac)-AMC); format: biochemical; settings: 5 nM enzyme, read-out: HDAC6 biochem
Procedure: (§1) Inhibition of HDAC enzymes was performed in 384-well plate format using human full-length recombinant HDAC1 and HDAC6, isolated from a baculovirus expression system in Sf9 cells (BPS Bioscience). Reaction buffer for HDAC1 contained 50 mM Tris HCl pH 8.0, 137 mM NaCl, 2.7 mM KCl, 1 mM MgCl2, 0.1 mg/mL BSA, and reaction buffer for HDAC6 contained 50 mM Tris/HCl, pH 8.0, 137 mM NaCl, 2.7 mM KCl, 250 μM EDTA, 1 mM DTT, 0.1 mg/mL BSA. Compounds (dissolved in 100% DMSO) or DMSO (vehicle) were diluted in assay buffer at 3× final assay concentration and then added to assay plates. SAHA ([…]) was used as a positive control. 3× final assay concentration of recombinant enzymes (final assay concentration is 4 nM and 5 nM for HDAC1 and HDAC6, respectively) were preincubated for 10 minutes with test compounds at room temperature. Afterwards, 3× final assay concentration of an acetylated fluorogenic peptide (Ac-Gly-Ala-Lys(Ac))-AMC, Bachem; final assay concentration is 12 µM and 40 µM for HDAC1 and HDAC6, respectively) was added to assay plate, allowing deacetylase reactions to incubate for 60 minutes at room temperature. The developer reagent containing 5 μM SAHA and 50 μM trypsin was added to stop the deacetylase reaction and generate AMNC-fluorescence. 15 minutes after addition of developer reagent, endpoint measurements were taken using CLARIOstar (BMG Labtech) plate reader (excitation/emission: 360/450). Fluorescence signals were normalized for each plate using GraphPad Prism software: reaction HDAC-substrate in presence of DMSO was set to 100% while reaction HDAC-substrate in presence of 10 μM SAHA was set to 0%.

[4] = target: human full-length recombinant HDAC1 (Homo sapiens (Human), UniProt Q13547); assay: HDAC1 enzymatic activity assay (alternative protocol, Ac-Gly-Ala-Lys(Ac)-AMC); format: biochemical; settings: 4 nM enzyme, read-out: HDAC1 biochem
Procedure: as §1

Sequence of catalytic domain 2 (CD2) of HDAC6 (Q9UBN7 482-800): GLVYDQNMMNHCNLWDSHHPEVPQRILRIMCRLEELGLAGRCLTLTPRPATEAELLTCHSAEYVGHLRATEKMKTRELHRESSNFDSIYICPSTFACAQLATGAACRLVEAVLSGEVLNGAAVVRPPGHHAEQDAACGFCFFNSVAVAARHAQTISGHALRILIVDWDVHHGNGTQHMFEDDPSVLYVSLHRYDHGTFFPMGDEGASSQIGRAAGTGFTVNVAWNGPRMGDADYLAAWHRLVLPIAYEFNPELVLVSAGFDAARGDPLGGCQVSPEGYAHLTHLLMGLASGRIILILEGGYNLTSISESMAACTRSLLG
Sequence of human full-length recombinant HDAC1 (Q13547 whole entry): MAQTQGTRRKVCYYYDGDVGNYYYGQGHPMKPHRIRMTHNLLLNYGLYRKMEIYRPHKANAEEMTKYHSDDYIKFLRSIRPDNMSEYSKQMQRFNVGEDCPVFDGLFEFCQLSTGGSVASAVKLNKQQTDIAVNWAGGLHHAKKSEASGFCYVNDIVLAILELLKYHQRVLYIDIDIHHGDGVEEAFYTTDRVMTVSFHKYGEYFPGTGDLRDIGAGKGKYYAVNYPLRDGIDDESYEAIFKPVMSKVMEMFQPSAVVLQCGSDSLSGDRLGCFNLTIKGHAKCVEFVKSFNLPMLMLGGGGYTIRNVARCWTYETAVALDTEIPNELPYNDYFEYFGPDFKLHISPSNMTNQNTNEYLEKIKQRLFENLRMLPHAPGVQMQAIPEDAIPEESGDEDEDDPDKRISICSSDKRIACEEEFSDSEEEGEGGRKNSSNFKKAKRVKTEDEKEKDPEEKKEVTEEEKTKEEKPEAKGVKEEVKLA
T1 sequence (Q9UBN7 whole entry): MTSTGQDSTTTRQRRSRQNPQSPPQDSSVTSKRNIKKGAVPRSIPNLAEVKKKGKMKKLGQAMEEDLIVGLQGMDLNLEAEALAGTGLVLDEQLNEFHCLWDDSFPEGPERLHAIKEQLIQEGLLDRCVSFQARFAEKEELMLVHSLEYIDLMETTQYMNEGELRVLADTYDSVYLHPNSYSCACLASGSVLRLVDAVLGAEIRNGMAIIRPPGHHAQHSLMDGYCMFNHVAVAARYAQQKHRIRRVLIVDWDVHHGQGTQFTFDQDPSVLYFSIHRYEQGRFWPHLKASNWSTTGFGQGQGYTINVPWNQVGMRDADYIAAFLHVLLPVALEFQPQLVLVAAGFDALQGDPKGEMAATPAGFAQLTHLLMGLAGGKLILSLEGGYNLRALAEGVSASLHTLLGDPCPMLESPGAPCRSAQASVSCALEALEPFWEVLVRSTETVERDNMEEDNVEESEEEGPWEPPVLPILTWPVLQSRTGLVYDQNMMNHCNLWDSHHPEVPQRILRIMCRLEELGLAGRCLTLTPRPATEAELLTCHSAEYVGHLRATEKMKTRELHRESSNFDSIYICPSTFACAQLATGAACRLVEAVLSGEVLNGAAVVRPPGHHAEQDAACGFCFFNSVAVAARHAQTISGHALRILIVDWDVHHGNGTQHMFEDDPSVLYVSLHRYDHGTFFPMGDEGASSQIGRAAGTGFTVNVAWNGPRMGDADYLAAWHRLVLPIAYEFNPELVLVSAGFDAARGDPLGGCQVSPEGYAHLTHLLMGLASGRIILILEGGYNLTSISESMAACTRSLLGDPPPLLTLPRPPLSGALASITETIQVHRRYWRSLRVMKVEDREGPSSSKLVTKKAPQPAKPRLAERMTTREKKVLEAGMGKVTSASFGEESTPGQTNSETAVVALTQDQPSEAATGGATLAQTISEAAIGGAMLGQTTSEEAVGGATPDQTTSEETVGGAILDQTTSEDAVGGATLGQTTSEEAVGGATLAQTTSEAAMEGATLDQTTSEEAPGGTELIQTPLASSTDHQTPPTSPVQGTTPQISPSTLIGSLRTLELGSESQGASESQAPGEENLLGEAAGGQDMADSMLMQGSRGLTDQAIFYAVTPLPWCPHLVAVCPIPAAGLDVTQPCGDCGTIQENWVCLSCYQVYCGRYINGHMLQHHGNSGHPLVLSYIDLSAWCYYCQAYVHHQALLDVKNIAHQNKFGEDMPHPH

| IC50 [1] | IC50 [2] | IC50 [3] | IC50 [4] | Structure (SMILES) |
| --- | --- | --- | --- | --- |
| – | 100 to 500 nM | ≤ 100 nM | > 10000 nM | O=C(CSc1nc(C(F)(F)F)nc2ccccc12)c1ccc(CCN2CCCC2=O)s1 [Example 26, 1-(2-(5-(2-((2-(trifluoromethyl)quinazolin-4-yl)thio)acetyl)thiophen-2-yl)ethyl)pyrrolidin-2-one] |
| – | 500 to 1000 nM | ≤ 100 nM | > 10000 nM | Cn1ncc2c(SCC(=O)c3cc(F)c(CNC(=O)C(C)(C)C)s3)ncnc21 [Example 28, N-((3-fluoro-5-(2-((1-methyl-1H-pyrazolo[3,4-d]pyrimidin-4-yl)thio)acetyl)thiophen-2-yl)methyl)pivalamide] |
| – | 100 to 500 nM | ≤ 100 nM | > 10000 nM | CC(C)(C)C(=O)NCCc1ccc(C(=O)CSc2nc(C(F)(F)F)nc3ccccc23)s1 [Example 29, N-(2-(5-(2-((2-(trifluoromethyl)quinazolin-4-yl)thio)acetyl)thiophen-2-yl)ethyl)pivalamide] |
| – | ≤ 100 nM | ≤ 100 nM | > 10000 nM | Cn1ncc2c(SCC(=O)c3ccc(CNC(=O)c4ccccc4)s3)ncnc21 [Example 30, N-((5-(2-((1-methyl-1H-pyrazolo[3,4-d]pyrimidin-4-yl)thio)acetyl)thiophen-2-yl)methyl)benzamide] |
| – | 100 to 500 nM | ≤ 100 nM | > 10000 nM | CN(Cc1ccc(C(=O)CSc2ncnc3c2cnn3C)s1)C(=O)C(C)(C)C [Example 33, N-methyl-N-((5-(2-((1-methyl-1H-pyrazolo[3,4-d]pyrimidin-4-yl)thio)acetyl)thiophen-2-yl)methyl)pivalamide] |
| – | 100 to 500 nM | ≤ 100 nM | > 10000 nM | CN(Cc1ccc(C(=O)CSc2ncnc3c2cnn3C)s1)C(=O)C1CC1 [Example 34, N-methyl-N-((5-(2-((1-methyl-1H-pyrazolo[3,4-d]pyrimidin-4-yl)thio)acetyl)thiophen-2-yl)methyl)cyclopropanecarboxamide] |
| – | 100 to 500 nM | ≤ 100 nM | > 10000 nM | Cc1nc(SCC(=O)c2ccc(CNC(=O)C3CC3)s2)c2ccccc2n1 [Example 35, N-((5-(2-((2-methylquinazolin-4-yl)thio)acetyl)thiophen-2-yl)methyl)cyclopropanecarboxamide] |
| – | ≤ 100 nM | ≤ 100 nM | > 10000 nM | O=C(CSc1nc(C(F)(F)F)nc2ccccc12)c1ccc(CCNC(=O)C2CC2)s1 [Example 36, N-(2-(5-(2-((2-(trifluoromethyl)quinazolin-4-yl)thio)acetyl)thiophen-2-yl)ethyl)cyclopropanecarboxamide] |
| – | 1000 to 10000 nM | ≤ 100 nM | > 10000 nM | O=C(NCCc1ccc(C(=O)CSc2nc(C(F)(F)F)nc3ccccc23)s1)c1ccccc1 [Example 37, N-(2-(5-(2-((2-(trifluoromethyl)quinazolin-4-yl)thio)acetyl)thiophen-2-yl)ethyl)benzamide] |
| – | ≤ 100 nM | ≤ 100 nM | > 10000 nM | CC(C)(C)C(=O)NCc1ccc(C(=O)CSc2nc(C(F)(F)F)nc3ccccc23)s1 [Example 38, N-((5-(2-((2-(trifluoromethyl)quinazolin-4-yl)thio)acetyl)thiophen-2-yl)methyl)pivalamide] |
| – | 100 to 500 nM | ≤ 100 nM | > 10000 nM | CC(C)(C)C(=O)NCc1ccc(C(=O)CSc2nncc3ccccc23)s1 [Example 193, N-((5-(2-(phthalazin-1-ylthio)acetyl)thiophen-2-yl)methyl)pivalamide] |
| – | 100 to 500 nM | ≤ 100 nM | > 10000 nM | Cc1nnc(SCC(=O)c2ccc(CNC(=O)C(C)(C)C)s2)c2ccccc12 [Example 194, N-((5-(2-((4-methylphthalazin-1-yl)thio)acetyl)thiophen-2-yl)methyl)pivalamide] |

Second part, the compound before the results:

| Structure (SMILES) | IC50 [1] | IC50 [2] | IC50 [3] | IC50 [4] |
| --- | --- | --- | --- | --- |
| Cn1cc2c(SCC(=O)c3ccc(CNC(=O)CO)s3)nc(C(F)F)nc2n1 [Compound 69, N-((5-(2-((6-(difluoromethyl)-2-methyl-2H-pyrazolo[3,4-d]pyrimidin-4-yl)thio)acetyl)thiophen-2-yl)methyl)-2-hydroxyacetamide] | ≤ 100 nM | 100 to 500 nM | – | – |
| COc1cc(F)c2nc(C)nc(SCC(=O)c3ccc(CNC(=O)CO)s3)c2c1 [Compound 108, N-((5-(2-((8-fluoro-6-methoxy-2-methylquinazolin-4-yl)thio)acetyl)thiophen-2-yl)methyl)-2-hydroxyacetamide] | ≤ 100 nM | 100 to 500 nM | – | – |
| COc1ccc2nc(C)nc(SCC(=O)c3ccc(CN(C)C(=O)CO)s3)c2c1 [Compound 109, 2-hydroxy-N-((5-(2-((6-methoxy-2-methylquinazolin-4-yl)thio)acetyl)thiophen-2-yl)methyl)-N-methylacetamide] | ≤ 100 nM | 500 to 1000 nM | – | – |
| CN(Cc1ccc(C(=O)CSc2nc(C(F)(F)F)nc3nn(C)cc23)s1)C(=O)CO [Compound 116, 2-hydroxy-N-methyl-N-((5-(2-((2-methyl-6-(trifluoromethyl)-2H-pyrazolo[3,4-d]pyrimidin-4-yl)thio)acetyl)thiophen-2-yl)methyl)acetamide] | ≤ 100 nM | 100 to 500 nM | – | – |
| Cc1nc(SCC(=O)c2ccc(CNC(=O)CO)s2)c2ncccc2n1 [Compound 153, 2-hydroxy-N-((5-(2-((2-methylpyrido[3,2-d]pyrimidin-4-yl)thio)acetyl)thiophen-2-yl)methyl)acetamide] | ≤ 100 nM | ≤ 100 nM | – | – |
| COc1cc2c(SCC(=O)c3ccc(CNC(=O)CO)s3)nc(C(F)(F)F)nc2cn1 [Compound 154, 2-hydroxy-N-((5-(2-((6-methoxy-2-(trifluoromethyl)pyrido[3,4-d]pyrimidin-4-yl)thio)acetyl)thiophen-2-yl)methyl)acetamide] | ≤ 100 nM | ≤ 100 nM | – | – |
| COc1ccc2nc(C)nc(SCC(=O)c3ccc(CNC(=O)CO)s3)c2c1F [Compound 158, N-((5-(2-((5-fluoro-6-methoxy-2-methylquinazolin-4-yl)thio)acetyl)thiophen-2-yl)methyl)-2-hydroxyacetamide] | ≤ 100 nM | ≤ 100 nM | – | – |
| COc1cc2c(SCC(=O)c3ccc(CN(C)C(=O)CO)s3)nc(C(F)(F)F)nc2cn1 [Compound 159, 2-hydroxy-N-((5-(2-((6-methoxy-2-(trifluoromethyl)pyrido[3,4-d]pyrimidin-4-yl)thio)acetyl)thiophen-2-yl)methyl)-N-methylacetamide] | ≤ 100 nM | ≤ 100 nM | – | – |
| CCOc1cnc2nc(C)nc(SCC(=O)c3ccc(CNC(=O)CO)s3)c2c1 [Compound 160, N-((5-(2-((6-ethoxy-2-methylpyrido[2,3-d]pyrimidin-4-yl)thio)acetyl)thiophen-2-yl)methyl)-2-hydroxyacetamide] | ≤ 100 nM | ≤ 100 nM | – | – |
| COc1cnc2nc(C(F)F)nc(SCC(=O)c3ccc(CNC(=O)CO)s3)c2c1 [Compound 164, N-((5-(2-((2-(difluoromethyl)-6-methoxypyrido[2,3-d]pyrimidin-4-yl)thio)acetyl)thiophen-2-yl)methyl)-2-hydroxyacetamide] | ≤ 100 nM | ≤ 100 nM | – | – |
| Cn1ncc2c(SCC(=O)c3ccc(CN4CCCC4=O)s3)ncnc21 [Example 25, 1-((5-(2-((1-methyl-1H-pyrazolo[3,4-d]pyrimidin-4-yl)thio)acetyl)thiophen-2-yl)methyl)pyrrolidin-2-one] | – | 100 to 500 nM | ≤ 100 nM | > 10000 nM |
